From ChEMBL document CHEMBL5303304, “EUbOPEN Chemogenomics Library - IncuCyte” (2023)
Several values for one entry are separate records, joined by “and”; a condition that tells them apart may be missing. Equal values may be shown once.

Assays:
Assay type in all cases: toxicity, cell-based
HEK-293T = experiment: Incucyte cell viability with HEK293T; conditions: human, 10 µM, compound concentration 10 uM
Fibroblast = experiment: Incucyte cell viability with human fibroblast; conditions: 10 µM, compound concentration 10 uM
U2OS = experiment: Incucyte cell viability with U2OS; conditions: human, 10 µM, compound concentration 10 uM
Note: unitless GR value; below 1 slowed growth and below 0 cell loss.

Compound	Growth Rate (HEK-293T; 6 h, replicate number 1)	Growth Rate (HEK-293T; 6 h, replicate number 2)	Growth Rate (HEK-293T; 12 h, replicate number 1)	Growth Rate (HEK-293T; 12 h, replicate number 2)	Growth Rate (HEK-293T; 18 h, replicate number 1)	Growth Rate (HEK-293T; 18 h, replicate number 2)	Growth Rate (HEK-293T; 24 h, replicate number 1)	Growth Rate (Fibroblast; 6 h, replicate number 1)	Growth Rate (Fibroblast; 6 h, replicate number 2)	Growth Rate (Fibroblast; 12 h, replicate number 2)	Growth Rate (Fibroblast; 18 h, replicate number 1)	Growth Rate (Fibroblast; 24 h, replicate number 1)	Growth Rate (Fibroblast; 24 h, replicate number 2)	Growth Rate (U2OS; 6 h, replicate number 1)	Growth Rate (U2OS; 6 h, replicate number 2)	Growth Rate (U2OS; 12 h, replicate number 1)	Growth Rate (U2OS; 12 h, replicate number 2)	Growth Rate (U2OS; 18 h, replicate number 1)	Growth Rate (U2OS; 18 h, replicate number 2)	Growth Rate (U2OS; 24 h, replicate number 1)	further results
CCN(CC)C/C=C/C(=O)Nc1cc2c(Nc3ccc(F)c(Cl)c3)ncnc2cc1OCC1CC1	-0.54	-0.45	-0.39	-0.32	-0.32	-0.35	-0.25	0.22	-0.01	-0.26	-0.12	-0.22	-0.46	0.31	0.36	-0.19	0.08	-0.19	0.06	-0.24	Growth Rate (HEK-293T; 24 h, replicate number 2): -0.29; Growth Rate (Fibroblast; 0 h, replicate number 2): -0.83; Growth Rate (Fibroblast; 12 h, replicate number 1): 0; Growth Rate (Fibroblast; 18 h, replicate number 2): -0.4; Growth Rate (U2OS; 0 h, replicate number 1): -0.62; Growth Rate (U2OS; 24 h, replicate number 2): -0.01
CC(C)n1cnc2c(Nc3cccc(Cl)c3)nc(N[C@H]3CCCC[C@@H]3N)nc21	-0.96	-0.92	-0.82	-0.59	-0.56	-0.35	-0.46	-1	-0.94	-0.16			0.13	0.85	0.88	-0.26	-0.22	-0.12	-0.25	-0.14	Growth Rate (HEK-293T; 24 h, replicate number 2): -0.25; Growth Rate (Fibroblast; 18 h, replicate number 2): -0.01; Growth Rate (U2OS; 0 h, replicate number 1): -1; Growth Rate (U2OS; 24 h, replicate number 2): -0.2
Cc1cc(S(=O)(=O)N2CC(C)(C)c3cc(-c4ccc(C(F)(F)F)cc4)ccc32)ccc1OCC(=O)O	0.72	0.73	0.7	0.81	0.71	0.95	0.79	0.92						0.69	0.68		0.54		0.8		Growth Rate (HEK-293T; 0 h, replicate number 1): 0.52; Growth Rate (HEK-293T; 0 h, replicate number 2): -0.17; Growth Rate (Fibroblast; 0 h, replicate number 1): -0.12; Growth Rate (Fibroblast; 0 h, replicate number 2): -0.87; Growth Rate (U2OS; 0 h, replicate number 2): -0.69; Growth Rate (U2OS; 24 h, replicate number 2): 0.98
Cc1nn(C)c(COc2ccc(N3CCN(S(=O)(=O)N(C)C)CC3)cc2)c1-c1cccc2c(CCCOc3cccc4ccccc34)c(C(=O)O)n(CCN3CCOCC3)c12	0.99	0.84	0.93		0.93			0.53			0.58	0.76		0.3	0.93	0.85	0.97	0.86	0.92	0.86	Growth Rate (HEK-293T; 0 h, replicate number 1): 0.38; Growth Rate (U2OS; 0 h, replicate number 1): 0.4; Growth Rate (U2OS; 24 h, replicate number 2): 0.98
Cc1ccc2c(N)c(C(=O)NC3CCc4cc(N5CC6CCC(C5)N6)ccc4C3)sc2n1.O=CO (stereo not drawn)	-0.55	-0.64	-0.47	-0.55	-0.39	-0.46	-0.32	0.09	-0.1	-0.17	0.05	0.01	-0.21		0.37	0.47	0.12	0.35	0.15	0.24	Growth Rate (HEK-293T; 24 h, replicate number 2): -0.37; Growth Rate (Fibroblast; 12 h, replicate number 1): 0.09; Growth Rate (Fibroblast; 18 h, replicate number 2): -0.26; Growth Rate (U2OS; 0 h, replicate number 2): 0.59; Growth Rate (U2OS; 24 h, replicate number 2): 0.08
CCN(c1ccccc1)c1cc(NC)[n+](C)c(C)n1.[Cl-]	0.95		0.84		0.58	0.99	0.79		-1	0.8	-0.22	0.44	0.91	0.41	0.69		0.84		0.83	0.87	Growth Rate (HEK-293T; 0 h, replicate number 2): 0.56; Growth Rate (Fibroblast; 0 h, replicate number 1): -0.7; Growth Rate (U2OS; 0 h, replicate number 2): -0.9
Cc1c(NC(=O)COc2ccc(Cl)cc2C(=O)c2cc(F)cc(C(F)(F)F)c2)ccc(C(=O)O)c1F [BI 2540]	0.71	0.58		0.77	0.97	0.75	0.91	0.41	0.6	0.54	0.85	0.87 and 0.99	0.97	0.84	-0.88	0.64		0.91		0.89 and 0.98	Growth Rate (HEK-293T; 0 h, replicate number 1): 0.45; Growth Rate (HEK-293T; 0 h, replicate number 2): 0.89 and 0.62; Growth Rate (HEK-293T; 24 h, replicate number 2): 0.78; Growth Rate (Fibroblast; 0 h, replicate number 2): -0.2; Growth Rate (Fibroblast; 12 h, replicate number 1): 0.77; Growth Rate (Fibroblast; 18 h, replicate number 2): 0.78; Growth Rate (U2OS; 0 h, replicate number 1): 0.29; Growth Rate (U2OS; 0 h, replicate number 2): 0.41
CN1CCN(C(=O)Cc2ccc(N/C(=C3\C(=O)Nc4cc(Cl)ccc43)c3ccccc3)cc2)CC1	0.26	0.83	0.71	0.92	0.84	0.82	0.8	0.12	-0.1	0.01	0.44	0.48	0.28		0.9		0.86		0.7		Growth Rate (HEK-293T; 24 h, replicate number 2): 0.73; Growth Rate (Fibroblast; 0 h, replicate number 2): 0.06; Growth Rate (Fibroblast; 12 h, replicate number 1): 0.24; Growth Rate (Fibroblast; 18 h, replicate number 2): 0.21; Growth Rate (U2OS; 24 h, replicate number 2): 0.58
NC1=NC(=O)/C(=C2\CCNC(=O)c3[nH]c4ccccc4c32)N1											-0.07			0.43	0.45	0.63	0.7	0.74	0.65	0.78	Growth Rate (HEK-293T; 0 h, replicate number 1): 0.81; Growth Rate (HEK-293T; 0 h, replicate number 2): 0.25; Growth Rate (Fibroblast; 0 h, replicate number 1): 0.39; Growth Rate (Fibroblast; 12 h, replicate number 1): -1
